A melting point compilation (Tetko et al.; mined from patent text by program, amines drawn as free bases though some values may be those of a salt)

| melting point | Structure (SMILES) |
| --- | --- |
| 160 to 162 °C | O=C(O)CCc1cc2cc(Cl)ccc2n1S(=O)(=O)c1ccc(-c2ccccc2)cc1 |
| 130 to 132 °C | CNC(=O)COC(=O)N1CCN(CCc2cc(-c3ccc(Cl)cc3)no2)CC1 |
| 32 to 34 °C | C=CCN(CC=C)C(=O)n1cnc(S(=O)C(C)C)n1 (centres undefined) |
| 300 °C | Nc1ncnc2c1ncn2Cc1nc2cccc(Cl)c2c(=O)n1-c1ccccc1-c1ccccc1 |
| 151 to 156 °C | COC(=O)/C(=C/C1CCCCCC1)c1ccc(S(C)(=O)=O)c(C(F)(F)F)c1 |
| 260 to 262 °C | COc1cc2ncc(C#N)c(Nc3cc(C)c(C)cc3N)c2cc1OC |
| 173 to 174 °C | CC1(C)Oc2ccc(C#N)cc2[C@@H](N2CCCC2)[C@@H]1O (relative stereo) |
| 77 to 79.5 °C | CC1(C)CC(=O)C(S(=O)CC2CCCCC2)=C(O)C1 (centres undefined) |
| 100 to 110 °C | Cc1cc(Nc2ccnc(Nc3ccc(C(=O)N(C)C4CCCN(CCCC(F)(F)F)C4)cc3)n2)ccc1F (centres undefined) |
| 80 to 80.5 °C | O=C(O)c1ccc(CCCCCc2ccccc2)cc1 |
| 48 to 51 °C | O=C(O)[C@H]1CCCN1C(=O)C(F)(F)F |
| 86 °C | CCN1CCCC1CNC(=O)c1c(O)c(OC)c2occc2c1OC (centres undefined) |
| 152 to 153 °C | CC1=NN(C(=O)NS(=O)(=O)c2ncccc2C(F)(F)F)C(C)(c2ccccc2)C1 (centres undefined) |
| 165 to 166 °C | CC(=O)Oc1c(C)cc(C2C(=O)Oc3c2cc(C(C)(C)C)cc3C(C)(C)C)cc1C (centres undefined) |
| 130 to 132 °C | Cc1cc(Cl)n2nc(CN=[N+]=[N-])nc2n1 |
| 198 to 200 °C | Cc1nc(N)sc1-c1ccnc(CC2CC2)n1 |
| 142 to 144 °C | COc1cc2c(cc1C)C1(CO2)C(=O)N(Cc2ccccn2)c2ccccc21 (centres undefined) |
| 115 °C | O=C1NCCNC1c1ccc(F)cc1 (racemic) |
| 149 to 155 °C | COc1ccc2[nH]c(S(=O)Cc3c(N)cc(C)c(OC)c3C)nc2c1 (centres undefined) |
| 91 to 94 °C | O=C1CC(=O)c2cc(OCCCOc3ccccc3)ccc21 |
| 96.5 to 97.5 °C | CCON=C(c1ccccc1SCc1ccc(Cl)cc1)n1ccnc1 |
| 182 to 192 °C | O=C(NC(c1ccccc1)c1cc2ccncc2[nH]1)c1ccncc1 (centres undefined) |
| 281 to 282 °C | COc1cccc(-c2nccc3[nH]c(=O)c(-c4noc(C)n4)cc23)c1 |

| melting point | Structure (SMILES) |
| --- | --- |
| 65 to 68 °C | CCCCCCCCCCCCCCOc1ccc(N)cc1 |
| 141 to 142 °C | Nc1cc(F)c(-c2cccnc2)c(F)c1 |
| 79.1 °C | CSc1cc(-c2ccccc2)nc(-c2cccc(C(F)(F)F)c2)c1 |
| 185 to 186 °C | N#CN=C(Nc1cccnc1)NC1CCCCC1 |
| 134 to 137 °C | O=c1[nH][nH]c(=O)c(-c2c(F)cc(F)cc2F)c1-c1ccc(Br)cc1 |
| 137 to 138 °C | N#Cc1ccc(N2CCN(Cc3cn4cc(Cl)ccc4n3)CC2)c(Cl)c1 |
| 228 °C | CC(C)(C)Sc1c(CC(C)(C)C(=O)O)n(Cc2ccc(Cl)cc2)c2ccc(OCc3cc4ccccc4cn3)cc12 |
| 273 to 276 °C | Nc1nc2cc(Br)ccc2c2c1nc1n2CCCO1 |
| 115 °C | COc1ccc(Cl)cc1C(=O)NCCc1ccc(-c2ccc(OC(C)(C)CO)cc2)cc1 |
| 163 °C | COc1ccc(S(=O)C(C(=O)NO)C(C)C)cc1 (centres undefined) |
| 151 to 153 °C | O=C(O)CCc1ccc(C(=O)CCl)cc1 |
| 53 to 56 °C | CC(C)(CN)Cc1ccc(CC(C)(C)CN)cc1 |
| 200 to 205 °C | CC1(C)OCc2cc(Cl)cc(C(=O)c3cn(C(c4ccccc4)(c4ccccc4)c4ccccc4)cn3)c2O1 |
| 52 to 53.5 °C | CCCCCCCCCc1ccc(C(=O)CC(=O)C(=O)OC)cc1 |
| 71 to 72.5 °C | COC1(C)CCc2c(C)c(OC(C)=O)c(C)c(C)c2O1 (centres undefined) |
| 100 to 101 °C | CCCC(CO)(CO)CO |
| 143 °C | OC1CSC(Oc2cc(F)cnc2Cl)C(O)C1O (centres undefined) |
| 193 °C | CCN(CC)c1ccc(C2(c3c(C)n(CC)c4ccccc34)OC(=O)c3ccccc32)c(OC(C)C)c1 (centres undefined) |
| 280 °C | Cc1ccc(C(=O)c2c(O)c3cc(C)ccc3[nH]c2=S)cc1 |
| 147 to 149 °C | CC(C)(C)c1ccccc1COc1ccc(N)nn1 |
| 127 to 128 °C | COC(=O)c1nn(CCN(C)C)c2nc3cc(OC)ccc3cc12 |
| 100 °C | CCCCCCCc1nnc(-c2ccc(O)cc2)s1 |
| 187 to 189 °C | Clc1ccc(C(N=C2NCCN2)c2ccccc2)cc1 (centres undefined) |

| melting point | Structure (SMILES) |
| --- | --- |
| 122 °C | N#Cc1cccc2c1CCC2=O |
| 119 to 121 °C | CCc1cccc(C)c1C(=O)N[C@@H](Cc1ccc([N+](=O)[O-])cc1)C(=O)OC |
| 179 °C | CCCC1=C(C(=O)OCC)C(c2ccccc2N)c2c[nH]nc2N1 (centres undefined) |
| 202 to 204 °C | COc1cc(OC)c2c(=O)[nH]c(-c3cccc(N4CCN(C(C)CO)CC4)n3)nc2c1 (centres undefined) |
| 61 to 63 °C | CC(=O)c1nccc(-c2ccc(Oc3ccc(F)cc3)cc2)n1 |
| 45 °C | FC(F)(F)Oc1ccc2cnn(SC(Cl)(Cl)Cl)c2c1 |
| 194 °C | CCOC(=O)[C@H](Cc1ccc(NC(=O)c2c(Cl)cncc2Cl)cc1)NC1=CC(=O)C12CCCCC2 |
| 87 to 92 °C | CCN(CCCCc1coc2ccccc12)C[C@H]1COc2ccc3nc(C)ccc3c2O1 |
| 191 to 192 °C | COc1cc(OCC(CO)CO)c(-c2cccs2)cc1C=CC(=O)c1ccc(S(N)(=O)=O)cc1 |
| 145 °C | c1ccc(-c2nc3ccccn3c2-c2ccnc(-c3ccc(N4CCOCC4)cc3)c2)nc1 |
| 172 to 173 °C | Cc1c(C(=O)O)ccc2c1C(O)CCS2(=O)=O (centres undefined) |
| 180 to 181 °C | CN1CCN(c2ccc(Nc3cc(-c4cccc(N5CCc6c(cc7n6CCCC7)C5=O)c4CO)cn(C)c3=O)nc2)CC1 |
| 103 to 105 °C | OC1CCc2cc(Cl)c(Cl)cc2C1 (centres undefined) |
| 152 to 154 °C | O=C(NC1=NN(c2ccccc2)C(c2ccccc2)C1)C(F)(F)F (centres undefined) |
| 97 to 98 °C | CSCc1noc(-c2cc(C(C)(C)C)c(O)c(C(C)(C)C)c2)n1 |
| 129 °C | COc1ccc(CNc2nc(OCc3ccccn3)ncc2C(=O)c2cc(OC)c(OC)c(OC)c2)cc1Cl |
| 158 °C | COC(=O)CC1CCCN(C(=O)c2ccc(N3CCCC3)cc2Cl)c2ccccc21 (centres undefined) |
| 76 to 78 °C | Oc1ccc(C2OCCO2)cc1Br |
| 105 to 107 °C | O=c1ccn(-c2cccc3c2OC(F)(F)O3)nc1-c1ccnn1-c1ccccc1 |
| 210 °C | O=C(Nc1ccccc1)O[C@@H]1CN=C(c2ccc(NC(=O)C(F)(F)F)cc2)O[C@H]1c1ccccc1 (racemic) |
| 190 to 191 °C | CCC(Oc1ccc(C(C)(C)CC)cc1C(C)(C)CC)C(=O)Nc1cc(O)c(NC(=O)c2ccccc2)cc1Cl (centres undefined) |
| 106 to 108 °C | O=C(CCl)Nc1cccc(C(=O)Cl)c1 |
| 124 to 125 °C | COc1cc2c(cc1C)CCN(C)C2C1(C2C=CCCC2)CCC1 (centres undefined) |

| melting point | Structure (SMILES) |
| --- | --- |
| 131 °C | CCOC(=O)C1=C(C)NC(N=CN(C)C)=C(C(=O)OCC)C1c1ccccc1 (centres undefined) |
| 155 to 158 °C | COc1ccc(OC)c(COc2ccc3nc[nH]c(=O)c3c2)c1 |
| 139 to 141 °C | COC(=O)c1cccc([N+](=O)[O-])c1-c1ccc2ccccc2c1OC |
| 257 to 260 °C | CC(=O)Nc1nc2ccc(S(=O)(=O)n3c(COC(C)C(=O)O)cc4nc(Cl)ccc43)cc2s1 (centres undefined) |
| 150 to 151 °C | CC(C)(C)C(NC(=O)Cc1ccc2ncccc2c1)NC(=NC#N)Nc1cccc2ncccc12 (centres undefined) |
| 216 to 217 °C | Cc1ccc(O)c(C(=O)Nc2cc(Cl)cc(Cl)c2)c1 |
| 160 to 162 °C | Cc1cc(=O)c(C(=O)OC2CCCCC2)nn1-c1ccc(Cl)cc1 |
| 124 to 128 °C | CC(C)CCCC(C)C1CCC2C3CC=C4CC(NC(=O)CCN(C)C(=O)OC5c6ccccc6-c6ccccc65)CCC4(C)C3CCC12C (centres undefined) |
| 195 to 200 °C | CN(C)C(=O)Cc1c[nH]c2ccc(I)cc12 |
| 252 to 255 °C | CCCn1nc2c(N)nc3ncccc3c2c1CC1CCOCC1 |
| 114 to 116 °C | CC(=O)NCCCC(=O)c1ccc(Cl)cc1CCC(=O)OCC(N)=O |
| 161 to 165 °C | CN(O)C(=O)C(=O)c1ccc(OCCOc2ccc3ccccc3c2)cc1 |
| 97 to 101 °C | CC12CCC3c4ccc(Cl)cc4CCC3C1CCC2NCc1cccc(C(F)(F)F)c1 (centres undefined) |
| 220 to 222 °C | S=C1NCC2(CC2)CN1 |
| 132 to 136 °C | C#CCOc1cc2c(cc1OC)C(=C(C#N)C(=O)OCC)CC2(C)C |
| 124 °C | Cc1ccc(C)c(Cn2[nH]c(N)cc2=O)c1 |
| 120 to 125 °C | CCNC(=O)c1cc2c(c(Cl)c1O)CCN(C(=O)OC(C)(C)C)C[C@@H]2c1ccc(O)cc1 |
| 189 to 190 °C | CN(C(C(=O)NO)C(C)(C)CN1C(=O)c2ccccc2C1=O)S(=O)(=O)c1ccc(Oc2ccccc2)cc1 (centres undefined) |
| 118 to 120 °C | CC(=O)OCC1OC(OC(C)=O)C(N=[N+]=[N-])C([N+](=O)[O-])C1OC(C)=O (centres undefined) |
| 63 to 65 °C | CCOC(=O)C(C(=O)C(F)(F)F)=C(Cc1ccccc1)C(N)C(=O)OCC (centres undefined) |
| 132 to 134 °C | CC[C@@H](NC(=O)N1CC(=O)NCC(Cc2cc(Cl)ccc2OC)C1=O)C(=O)Nc1ccc(C)c(C(=O)O)c1 (some centres undefined) |
| 140 to 144 °C | O=[N+]([O-])c1ccc2sc(NCCCO)nc2c1 |
| 217 to 219 °C | COc1ccc2c(c1)C(=NO)C(=O)N2c1ccc(F)cc1 |

| Structure (SMILES) | melting point |
| --- | --- |
| CCCCCCCCc1cc2c(s1)NC(=O)CN=C2c1ccccc1OC | 128 to 130 °C |
| N#Cc1ccc(N2C(=O)N(CCCO)C3(CCOCC3)C2=O)cc1C(F)(F)F | 155 to 156 °C |
| Cc1ccc(S(=O)(=O)OCCN(CCOS(=O)(=O)c2ccc(C)cc2)S(=O)(=O)c2ccc(C)cc2)cc1 | 85 to 87 °C |
| ClCOc1nc(Cl)c(Cl)cc1Cl | 94 to 96 °C |
| N#Cc1cccnc1NCc1nc2ccc(F)cc2c(=O)n1-c1ccccc1Cl | 145 to 150 °C |
| Cc1c(Cl)ccc2c(=O)n(CCCN3CC=C(c4ccc(Cl)cc4)CC3)c(=O)[nH]c12 | 208 to 210 °C |
| CC(C)(C)OC(=O)N[C@H](Cc1ccccc1)C(=O)N1CCC[C@H]1C(=O)NC(Cc1ccc(C#N)cc1)P(=O)(Oc1ccccc1)Oc1ccccc1 (some centres undefined) | 85 to 90 °C |
